Test: Progressive release of an encapsulated active from liposomes under UV irradiation
Assay type: physicochemical
Excerpt: All is done in a manner identical to what is presented in Example 15, but RNA of marine origin, which is commercially available, is used in amounts which are identical to those used in Example 15. All is done in a manner identical to what is presented in Example 15, but DNA of plant origin or RNA of plant origin, which are commercially available (Inocosm), are used in amounts which are identical to those used in Example 15. All is done in a manner identical to what is presented in Example 15, but oligonucleosides or oligonucleotides, which are prepared by chemical synthesis and which are available from companies which manufacture these nucleosides or these nucleotides to order, are used for preparing these particles, in proportions which are identical to those used in Example 15.

Row | release under UV irradiation (encapsulated in plant DNA or plant RNA liposomes (Example 17), after 3 hours of irradiation) | release under UV irradiation (encapsulated in plant DNA or plant RNA liposomes (Example 17), after 6 hours of irradiation) | release under UV irradiation (encapsulated in marine RNA liposomes (Example 16), after 3 hours of irradiation) | release under UV irradiation (encapsulated in marine RNA liposomes (Example 16), after 6 hours of irradiation) | Molecule
1 | 60% | 96% |  |  | CCCCC(CC)COC(=O)C=Cc1ccc(OC)cc1 (stereo not shown) [Parsol MCX]
2 |  |  | 40% | 80% | tocopherol

From patent US8957001B2, “Particles comprising a biopolymer which is degradable under the effect of an electromagnetic wave as emitted by a solar radiation” (BASF Beauty Care Solutions France SAS, priority 2002, dated 2015)
